US10828301B2, “2,4-pyrimidinediamine compounds and their uses” (Rigel Pharmaceuticals, Inc, priority 2002, dated 2020)

Legend:
Assay type in all cases: cell-based
[1] = tested on: cultured human mast cells (CHMC); assay: CHMC high cell density IgE activation: degranulation (hexos, tryptase, histamine), leukotriene (LTC4) and cytokine (TNFalpha, IL-13) assays; conditions: anti-IgE activation
Experimental: After sensitizing, cells are counted, pelleted (1000 rpm, 5-10 minutes), and resuspended at 1-2×10^6 cells/ml in MT buffer. Add 100 ul of cell suspension to each well and 100 ul of compound dilutions. The final vehicle concentration is 0.5% DMSO. Incubate at 37° C. (5% CO2) for 1 hour. After 1 hour of compound treatment, stimulate cells with 6× anti-IgE. Mix wells with the cells and allow plates to incubate at 37° C. (5% CO2) for one hour. After 1 hour incubation, pellet cells (10 minutes, 1000 RPM) and collect 200 ul per well of the supernatant, being careful not to disturb pellet. Place the supernatant plate on ice. During the 7-hour step (see next) perform tryptase assay on supernatant that had been diluted 1:500. Resuspend cell pellet in 240 ul of CM media containing 0.5% DMSO and corresponding concentration of compound. Incubate CHMC cells for 7 hours at 37° C. (5% CO2). After incubation, pellet cells (1000 RPM, 10 minutes) and collect 225 ul per well and place in −80° C. until ready to perform ELISAS. ELISAS are performed on appropriately diluted samples (determined empirically for each donor cell population so that the sample measurement falls within the standard curve) following the supplier's instructions.

[2] = tested on: cultured human mast cells (CHMC); assay: CHMC low cell density IgE activation: tryptase and LTC4 assays
How it was run: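 Degranulation measured after 30 min anti-IgE challenge at 37° C of CHMC plated at 1000-1500 cells/well following 1 h preincubation. Readouts: LTC4 by ELISA on donor-specific diluted supernatants, and tryptase activity from a 30 min room-temperature substrate reaction.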

[3] = tested on: cultured human mast cells (CHMC); assay: CHMC low cell density ionomycin activation: tryptase assay; conditions: read-out: CHMC Ionomycin Tryptase
[4] = LTC4, read-out: CHMC high density LTC4
[5] = TNF-alpha, read-out: CHMC high density TNF-alpha
[6] = hexosaminidase release, read-out: CHMC high density hexos
[7] = histamine release, read-out: CHMC high density histamine
[8] = tryptase release, read-out: CHMC high density tryptase
[9] = Homo sapiens, Mast cell, Low Density CHMC, anti-IgE activation, LTC4 readout, read-out: CHMC anti-IgE LTC4
[10] = Homo sapiens, Mast cell, Low Density CHMC, anti-IgE activation, tryptase readout, read-out: CHMC anti-IgE Tryptase
[11] = Homo sapiens, Mast cell, Low Density CHMC, ionomycin activation, tryptase readout
[12] = Low Density CHMC, anti-IgE activation, tryptase readout, read-out: CHMC anti-IgE Tryptase
[13] = Low Density CHMC, ionomycin activation, tryptase readout

IC50 [2, 10] [nM] | IC50 [3, 11] [nM] | Compound | further results
263 | > 10000 | CC(C)Oc1ccc(Nc2nc(Nc3ccc4oc(CO)cc4c3)ncc2F)cc1 [Compound R926705, 5-Fluoro-N2-[2-(hydroxymethyl)benzofuran-5-yl]-N4-[4-(isopropoxy)phenyl]-2,4-pyrimidinediamine] | IC50 [1, 4]: 494 nM; IC50 [1, 5]: > 10000 nM; IC50 [1, 6]: 1010 nM; IC50 [1, 7]: 641 nM; IC50 [1, 8]: 1260 nM; IC50 [2, 9]: 533 nM
564 | > 10000 | COC(=O)c1cc2cc(Nc3ncc(F)c(Nc4ccc(OC(C)C)cc4)n3)ccc2o1 [Compound R926704, 5-Fluoro-N2-(2-methoxycarbonylbenzofuran-5-yl)-N4-(4-isopropoxyphenyl)-2,4-pyrimidinediamine] | IC50 [1, 4]: > 10000 nM; IC50 [1, 5]: > 10000 nM; IC50 [1, 6]: > 2000 nM; IC50 [1, 7]: > 10000 nM; IC50 [1, 8]: > 10000 nM
70 | 2410 | COC(=O)C1Cc2cc(Nc3ncc(F)c(Nc4ccc(OC(C)C)cc4)n3)ccc2O1 (stereo not drawn) [Compound R926706, 5-Fluoro-N2-(2,3-dihydro-2-(methoxycarbonyl)benzofuran-5-yl)-N4-(4-isopropoxyphenyl)-2,4-pyrimidinediamine] | IC50 [1, 4]: 1490 nM; IC50 [1, 5]: > 10000 nM; IC50 [1, 6]: > 2000 nM; IC50 [1, 7]: > 10000 nM; IC50 [1, 8]: > 10000 nM; IC50 [2, 9]: 78 nM
571 | > 10000 | CNC(=O)c1cc2cc(Nc3ncc(F)c(Nc4ccc5c(c4)OCCO5)n3)ccc2o1 [Compound R926496, N4-(3,4-Ethylenedioxyphenyl)-5-fluoro-N2-[2-(N-methylamino)carbonylbenzofuran-5-yl]-2,4-pyrimidinediamine] | IC50 [1, 4]: 414 nM; IC50 [1, 5]: 622 nM; IC50 [1, 6]: 429 nM; IC50 [1, 7]: 809 nM; IC50 [1, 8]: 533 nM
 | > 10000 | OCc1cc2cc(Nc3ncc(F)c(Nc4cccc(O)c4)n3)ccc2[nH]1 [Compound R926700, 5-Fluoro-N4-(3-hydroxyphenyl)-N2-[2-(hydroxymethyl)-(1H)-indol-5-yl]-2,4-pyrimidinediamine] | IC50 ([1]; IL-13, read-out: CHMC high density IL-13): 2050 nM; IC50 [1, 4]: < 1100 nM; IC50 [1, 5]: < 1100 nM; IC50 [1, 6]: < 1100 nM; IC50 [1, 7]: < 1100 nM; IC50 [1, 8]: < 1100 nM
> 10000 | > 10000 | O=[N+]([O-])c1cnc(Nc2ccc3c(c2)OCCO3)nc1Nc1ccc2c(c1)OCCO2 [Compound R940095, N2,N4-Bis-(3,4-ethylenedioxyphenyl)-5-nitro-2,4-pyrimidinediamine] | 
885 | > 10000 | CC(C)Oc1ccc(Nc2nc(Nc3ccc(OCC(O)CO)cc3)ncc2F)cc1 (stereo not drawn) [Compound R935175, N2-[4-(2,3-Dihydroxypropoxy)phenyl]-5-fluoro-N4-(4-isopropoxyphenyl)-2,4-pyrimidinediamine] | 
1730 | > 10000 | Cc1ccc(F)c(Nc2ncc(F)c(Nc3ccc4c(c3)OCCO4)n2)c1 [Compound R926897, N4-(3,4-Ethylenedioxyphenyl)-5-fluoro-N2-(2-fluoro-5-methylphenyl)-2,4-pyrimidinediamine] | 
 |  | Oc1cccc(Nc2nc(Nc3ccc(OCc4nnn[nH]4)cc3)ncc2C(F)(F)F)c1 [Compound R920846] | IC50 [2, 12]: > 10000 nM; IC50 [3, 13]: > 10000 nM
7870 | > 10000 | Fc1cnc(NCCCN2CCN(Cc3c(F)cccc3Cl)CC2)nc1Nc1ccc2c(c1)OCCO2 [Compound R926717, N2-[3-[4-(2-Chloro-6-fluorobenzyl)piperazino]propyl]-N4-(3,4-ethylenedioxyphenyl)-5-fluoro-2,4-pyrimidinediamine] | 
2850 | > 10000 | COC(=O)c1cc2cc(Nc3ncc(F)c(Nc4ccc5oc(C(=O)OC)cc5c4)n3)ccc2o1 [Compound R926604, N2,N4-Bis(2-methoxycarbonylbenzofuran-5-yl)-5-fluoro-2,4-pyrimidinediamine] | 
1830 | > 10000 | CN1C=COc2cc(Nc3nc(Nc4cccc(O)c4)ncc3F)ccc21 [Compound R908707, 5-Fluoro-N2-(3-hydroxyphenyl)-N4-(N-methyl-1,4-benzoxazin-7-yl)-2,4-pyrimidinediamine] | 
4800 | > 10000 | CCOC(=O)C=Nc1cccc(Nc2nc(N(CC(=O)OCC)c3cccc(N=CC(=O)OCC)c3)ncc2F)c1 [Compound R950183, N2,N4-Bis(3-ethoxycarbonylmethyleneaminophenyl)-N2-(ethoxycarbonylmethyl)-5-fluoro-2,4-pyrimidinediamine] | 
3200 | > 10000 | Fc1cnc(Nc2cccnc2)nc1Nc1ccc2c(c1)OCCO2 [Compound R920668, N4-(3,4-Ethylenedioxyphenyl)-5-fluoro-N2-(3-pyridyl)-2,4-pyrimidinediamine] | 
1320 | > 10000 | Oc1cccc(Nc2ncc(F)c(Nc3ccc(Cl)cn3)n2)c1 [Compound R927020, N4-(5-Chloropyridin-2-yl)-5-fluoro-N2-(3-hydroxyphenyl)-2,4-pyrimidinediamine] | 
> 10000 | > 10000 | Fc1cnc(Nc2cccc(-c3ccccc3)c2)nc1Nc1cccc(-c2ccccc2)c1 [Compound R926403, N2,N4-Bis[(3-phenyl)phenyl]-5-fluoro-2,4-pyrimidinediamine] | 
 |  | O=[N+]([O-])c1cc(Nc2ncc(F)c(Nc3ccc(F)c([N+](=O)[O-])c3)n2)ccc1F [Compound R950148, N2,N4-Bis(4-fluoro-3-nitrophenyl)-5-fluoro-2,4-pyrimidinediamine] | IC50 ([2]; Homo sapiens, Mast cell, read-out: CHMC anti-IgE Tryptase): 2280 nM; IC50 ([3]; Homo sapiens, Mast cell): > 10000 nM
> 10000 | > 10000 | Oc1ccc(CCNc2ncc(F)c(NCCc3ccc(O)cc3)n2)cc1 [Compound R925791, N2,N4-Bis[2-(4-hydroxyphenyl)ethyl]-5-fluoro-2,4-pyrimidinediamine] | 
10000 | > 10000 | N#Cc1ccc(Nc2ncc(F)c(Nc3ccc(C#N)cc3)n2)cc1 [Compound R945057, N2,N4-Bis(4-cyanophenyl)-5-fluoro-2,4-pyrimidinediamine] | 
496 | > 10000 | Nc1cccc(Nc2nc(Nc3ccc4c(c3)N=CCO4)ncc2F)c1 [Compound R950254, N4-(3-Aminophenyl)-N2-(1,4-benzoxazin-6-yl)-5-fluoro-2,4-pyrimidinediamine] | 
2800 | > 10000 | OCc1cccc(Nc2ncc(F)c(Nc3cccc(CO)c3)n2)c1 [Compound R925757, N2,N4-Bis(3-(hydroxymethyl)phenyl)-5-fluoro-2,4-pyrimidinediamine] | 
1100 | > 10000 | Fc1cc(F)cc(Nc2ncc(F)c(Nc3ccc4c(c3)OCCO4)n2)c1 [Compound R926898, N4-(3,4-Ethylenedioxyphenyl)-5-fluoro-N2-(3,5-difluorophenyl)-2,4-pyrimidinediamine] | 
2620 | > 10000 | Oc1cccc(Nc2nc(Cl)c(Cl)c(Nc3cccc(O)c3)n2)c1 [Compound R926591, N2,N4-Bis(3-hydroxyphenyl)-5,6-dichloro-2,4-pyrimidinediamine] | 
 |  | COC(=O)c1ccc(CNc2nc(Nc3ccc4c(c3)OCCO4)ncc2C#N)cc1 [Compound R925820, 5-Cyano-N2-(3,4-ethylenedioxyphenyl)-N4-(methoxycarbonylbenzyl)-2,4-pyrimidinediamine] | IC50 [2, 12]: > 10000 nM; IC50 [3, 13]: > 10000 nM
> 10000 | > 10000 | COc1ccc(Nc2ncc(Br)c(Nc3ccc(OC)c(-c4ccccc4)c3)n2)cc1-c1ccccc1 [Compound R925802, N2,N4-Bis(4-methoxy-3-phenylphenyl)-5-bromo-2,4-pyrimidinediamine] | 
378 | > 10000 | Oc1cccc(Nc2nc(Nc3ccc(-n4cnc(Cl)c4Cl)cc3)ncc2F)c1 [Compound R926777, N2-[4-(4,5-Dichloro-1H-imidazol-1-yl)phenyl]-5-fluoro-N4-(3-hydroxyphenyl)-2,4-pyrimidinediamine] | 

Compound | IC50 [2, 10] [nM] | IC50 [3, 11] [nM] | further results
CC(C)(C)OC(=O)Nc1cccc(Nc2ncc(F)c(Nc3cccc(NC(=O)OC(C)(C)C)c3)n2)c1 [Compound R950108, N2,N4-Bis[3-(tert-butoxycarbonylamino)phenyl]-5-fluoro-2,4-pyrimidinediamine] | 2080 | > 10000 | 
